Values quoted from earlier work in patent US9353109B2, “Flindersia alkaloids, derivatives and analogs: compositions and methods for producing the same” (UNIVERSITY OF HOUSTON SYSTEM, priority 2012, dated 2016).

system: chloroquine-resistant falciparum strains; settings: at concentrations that do not affect mammalian cells' viability

Molecule | effectiveness toward chloroquine-resistant falciparum strains
CNCCc1c(/C=C/[C@@]2(C)C[C@H](C=C(C)C)c3c(CCNC)c4ccccc4n32)[nH]c2ccccc12 [flinderole A] | show effectiveness toward chloroquine-resistant falciparum strains
CC(C)=C[C@H]1C[C@](C)(/C=C/c2[nH]c3ccccc3c2CCN(C)C)n2c1c(CCN(C)C)c1ccccc12 [flinderole B] | show effectiveness toward chloroquine-resistant falciparum strains
CNCCc1c(C2C3C(C=C(C)CC3(C)C)c3c(CCNC)c4ccccc4n32)[nH]c2ccccc12 (stereo not shown) [isoborreverine] | show effectiveness toward chloroquine-resistant falciparum strains
CC(C)=C[C@H]1C[C@@](C)(/C=C/c2[nH]c3ccccc3c2CCN(C)C)n2c1c(CCN(C)C)c1ccccc12 [flinderole C] | show effectiveness toward chloroquine-resistant falciparum strains
dimethylisoborreverine | show effectiveness toward chloroquine-resistant falciparum strains
CCN(CC)CCCC(C)Nc1ccnc2cc(Cl)ccc12 (stereo not shown) [chloroquine, reference compound] | show effectiveness toward chloroquine-resistant falciparum strains
C[C@@H]1CC[C@H]2[C@@H](C)C(=O)O[C@@H]3O[C@@]4(C)CC[C@@H]1[C@]32OO4 [artemisinin, reference compound] | show effectiveness toward chloroquine-resistant falciparum strains
